Test results as given in publication PMC10948889, “Differential scanning fluorimetry to assess PFAS binding to bovine serum albumin protein” (Scientific Reports, 2024).
Read-outs that look alike come from different tables or passages of the source.

Assays:
[1] = design: method as in PMID 29185060; conditions: octanol/water; experimental average (in parentheses), EPA CompTox Chemicals Dashboard; cited from earlier work
[2] = design: method as in PMID 29185060; conditions: octanol/water, EPA CompTox Chemicals Dashboard; cited from earlier work
[3] = target: T1, bovine serum albumin (BSA) (Bos taurus, UniProt P02769); experiment: Label-free differential scanning fluorimetry, equilibrium-based binding model near BSA melting temperature; conditions: for Ka (association constant): 61 °C, 10 μM BSA in pH 7.4 PBS, fit to Eqs. (1) and (2), standard error in parentheses
T1 construct: purchased Sigma-Aldrich (St. Louis, MO)
Procedure: (§1) Bovine serum albumin (lyophilized powder, 99% fatty acid free) was obtained from Sigma-Aldrich (St. Louis, MO). A BSA concentration of 10 μM in pH 7.4 phosphate buffered saline (PBS) was used in each experiment. The solution of BSA was kept at 4 °C prior to use.
Experiments were conducted using a Tycho NT.6 differential scanning fluorimeter (NanoTemper, Munich, Germany). […] Solutions were prepared a day in advance of the experiment and stored at 4 °C. Immediately prior to analysis, each sample was loaded into a 1 mm diameter glass capillary and placed in the instrument. […] Fluorescence intensity was measured at 0.1 °C intervals at emission wavelengths of 330 and 350 nm. The ratio of the intensity at these wavelengths, I350/I330, was used to account for blue shifts in the emission peak wavelengths with increasing temperature. The minimum value of the first derivative of the I350/I330 curve with respect to temperature, denoting the midpoint of the melting transition where the fraction of folded to unfolded protein is 1, was taken as the melting temperature Tm. Each experiment was performed in triplicate.
As described by Eftink and Ghiron[44], baseline subtraction of the raw fluorescence intensity data collected at 350 nm was performed at both high and low temperatures. The plots were then normalized by dividing by the maximum intensity value.
The term fU is the fraction of unfolded protein based on the concentration of unfolded protein, [U], divided by the total protein, [P]t, which is the sum of [U], folded protein [F], and folded protein with bound ligand [FL]. [L] is the total free ligand by correcting the total ligand concentration, [L]t, which is a main benefit of this model. KU represents the equilibrium between folded and unfolded protein, and Kd is the ligand dissociation constant from the bound to unbound states.3 Kd=Ka-1=F[L]/[FL]

[4] = target: T1, bovine serum albumin (BSA); experiment: Tryptophan fluorescence quenching from DSF, Hill adsorption model; type: binding; conditions: 35 °C to 50 °C
Procedure: as §1
(§2) Experiments were conducted using a Tycho NT.6 differential scanning fluorimeter (NanoTemper, Munich, Germany). PFAS was added to 2 mL of the stock BSA solution to obtain the PFAS:BSA or FA:BSA ratios of 0:1, 0.5:1, 1:1, 2:1, 3:1, and 4:1. Solutions were prepared a day in advance of the experiment and stored at 4 °C. Immediately prior to analysis, each sample was loaded into a 1 mm diameter glass capillary and placed in the instrument. Thermal scans were conducted from 35 to 95 °C at a scan rate of 0.5 °C s^−1 with a 285 nm excitation wavelength. Fluorescence intensity was measured at 0.1 °C intervals at emission wavelengths of 330 and 350 nm. The ratio of the intensity at these wavelengths, I350/I330, was used to account for blue shifts in the emission peak wavelengths with increasing temperature. The minimum value of the first derivative of the I350/I330 curve with respect to temperature, denoting the midpoint of the melting transition where the fraction of folded to unfolded protein is 1, was taken as the melting temperature Tm. Each experiment was performed in triplicate. The same procedure was used for the control ligand warfarin.
The Hill model has been used to correct for the presence of a fluorescent protein–ligand complex and binding cooperativity[21],[34].4 I0-I/I0-Ires=KHillQ^nHill/1+KHillQ^nHill
I0 and I are the fluorescence intensity of BSA in the absence and presence of the ligand and Ires accounts for residual fluorescence at infinite quencher concentration. KHill and nHill are the Hill binding constant and the cooperativity constant, respectively, and [Q] is the concentration of added quencher (PFAS or FA).

[5] = target: T1, bovine serum albumin (BSA); experiment: Label-free differential scanning fluorimetry, BSA melting temperature shift (protein stabilization); type: binding; conditions: for Stabilizing effect on BSA folded structure (ΔTm): ligand:BSA ratios 0:1 to 4:1, 10 μM BSA, pH 7.4 PBS
Procedure: as §1
as §2, with “Thermal scans were conducted from 35 to 95 °C at a scan rate of 0.5 °C s^−1 with a 285 nm excitation wavelength.” left out, “triplicate.” for “triplicate. The same procedure was used for the control ligand warfarin.”

[6] = tested on: cattle; conditions: varies by sex; cited from earlier work
[7] = ligand:BSA ratio up to 4:1, native protein Tm 62 °C

T1 sequence (P02769 25-607): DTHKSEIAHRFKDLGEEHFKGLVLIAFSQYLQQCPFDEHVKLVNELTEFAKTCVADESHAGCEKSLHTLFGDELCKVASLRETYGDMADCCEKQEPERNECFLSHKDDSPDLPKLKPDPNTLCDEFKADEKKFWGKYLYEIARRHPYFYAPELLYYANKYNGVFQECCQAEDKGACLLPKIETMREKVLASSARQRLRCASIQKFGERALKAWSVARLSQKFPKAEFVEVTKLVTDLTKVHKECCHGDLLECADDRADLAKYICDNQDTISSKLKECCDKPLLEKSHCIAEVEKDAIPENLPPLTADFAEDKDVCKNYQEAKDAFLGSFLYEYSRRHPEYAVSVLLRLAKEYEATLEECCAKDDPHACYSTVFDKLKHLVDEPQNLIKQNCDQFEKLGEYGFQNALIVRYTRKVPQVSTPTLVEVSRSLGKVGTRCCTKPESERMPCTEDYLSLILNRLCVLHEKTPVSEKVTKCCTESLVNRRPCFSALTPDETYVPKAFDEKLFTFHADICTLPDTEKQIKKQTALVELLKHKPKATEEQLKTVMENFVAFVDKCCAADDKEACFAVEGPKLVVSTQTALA

Structure (SMILES) | Log Kow (experimental average) [1] | Log Kow (predicted average) [2] | Kd [3] [µM] | Temperature dependence of KHill (Hill association constant) [4] | Stabilizing effect on BSA folded structure (ΔTm) [5] | Tm of BSA with ligand [5, 7] [°C] | Ka (association constant) [3] | Tm of BSA with ligand [5] [°C] | half-life [6] [days]
CCCCCCCCC(=O)O [NA, Nonanoic acid] | 3.42 | 3.41 | 0.341 |  |  |  |  |  | 
O=C(O)C(F)(OC(F)(F)C(F)(F)C(F)(F)F)C(F)(F)F (stereo not drawn) [GenX, Perfluoro-2-methyl-3-oxahexanoic acid] |  | 5.41 | 50.5 | does not change with temperature | little stabilization |  |  |  | 
O=C(O)C(F)(F)C(F)(F)C(F)(F)C(F)(F)C(F)(F)C(F)(F)C(F)(F)F [PFOA, Perfluorooctanoic acid] | 3.10 | 5.68 | 41 | increasing with temperature |  | 69 to 71 |  |  | 
O=C(O)C(F)(F)C(F)(F)C(F)(F)C(F)(F)C(F)(F)C(F)(F)C(F)(F)C(F)(F)C(F)(F)F [PFDA, Perfluorodecanoic acid] | 4.15 | 7.32 |  | increasing with temperature | no measurable protein stabilization |  | 0.33 (0.26) 10^4 M^−1 |  | 
CCCCCCCC(=O)O [OA, Octanoic acid] | 3.05 | 2.99 |  |  |  |  |  |  | 
O=C(O)C(F)(F)C(F)(F)C(F)(F)C(F)(F)C(F)(F)C(F)(F)C(F)(F)C(F)(F)F [PFNA, Perfluorononanoic acid] | 3.54 | 6.51 |  | increasing with temperature | greatest stabilizing effect |  |  | 69 to 71 | 
CCCCCCCCCC(=O)O [DA, Decanoic acid] |  | 4.03 | 27.6 |  |  |  |  |  | 
O=S(=O)(O)C(F)(F)C(F)(F)C(F)(F)C(F)(F)C(F)(F)C(F)(F)F [PFHxS, Sodium perfluorohexanesulfonate] |  | 2.91 | 10.6 |  | greatest stabilizing effect | 69 to 71 |  |  | 
O=S(=O)(O)C(F)(F)C(F)(F)C(F)(F)C(F)(F)C(F)(F)C(F)(F)C(F)(F)C(F)(F)F [PFOS, Sodium perfluorooctanesulfonate] |  | 4.94 |  |  | minimal shift Tm |  |  |  | 39 to 120
O=S(=O)([O-])C(F)(F)C(F)(F)C(F)(F)C(F)(F)F.[Na+] [PFBS, Sodium perfluorobutylsulfonate] |  | 2.20 |  |  | little stabilization |  | 2.08 (0.61) 10^4 M^−1 |  | 
